Test results from patent US11304930B2, “Ammonium salts of 3-(3,5-dibromo-4-hydroxybenzyliden)-5-indo-1,3-dihydroindol-2-one and uses thereof” (Metagone Biotech Inc., priority 2018, dated 2022).
Read-outs that look alike come from different tables or passages of the source.

Key:
SUN-1 cells = test: MTS cell viability / proliferation assay; type: cell-based; settings: 72 hrs, in combination with sorafenib
Experimental: Gastric cancer cell line SUN-1 was purchased from the American Type Culture Collection (ATCC; Manassas, Va., USA) and were maintained in Roswell Park Memorial Institute-1640 (RPMI-1640) supplemented with 1.5 g/L sodium bicarbonate, 10% fetal bovine serum (FBS), 1.0% antibiotic-antimycotic, L-glutamine (2.0×10^−3 M), and 1.0% nonessential amino acids.
MTS cell proliferation assay kit (Abcam, Cambridge, UK) was used to evaluate cell viability. Briefly, SNU-1 cells were seeded in each well of a 96-well plate at the density of 8,000 cells/well and incubated overnight at 37° C. Cells were then treated with a test drug for 48 or 72 h at 37° C. Then, 20 μl MTS/well was added and incubated for 3 h at 37° C. Cell viability was measured by absorbance at 490 nm in a microplate reader.
To validate the bioactivity of the ammonium salts of GW5074 of Example 1, their effects on cell proliferation with or without the addition of another cell proliferation inhibitor-sorafenib, were investigated using MTS cell proliferation assay kit in accordance with the manufacturer's protocols. Results are illustrated FIGS. 1A and 1B.

[1] = mouse, in vivo, 40 mg/kg
Experimental: (§1) B6 mice about 6-8 weeks of age (National laboratory animal center, Taipei, Taiwan) were used in the present study.
(§2) Pilot PK studies were carried out in mice.
(§3) Mice were fasting for 8 hrs before dosing. […] Blood samples were drawn from the tail vein at pre-designated time points. Each samples were extracted with 80% ethanol for 30 minutes and individually filtered through a 0.22 μm PVDF filter, then were subjected to HPLC-MS/MS.

[2] = Pilot pharmacokinetic study in mice; settings: single dose 40 mg/Kg, GW5074 measured in plasma; for AUC0-t: 0 to 24 hours
Experimental: as §1, §2, §3

[3] = Water solubility of GW5074 salts

O=C1Nc2ccc(I)cc2C1=Cc1cc(Br)c(O)c(Br)c1 [GW5074, 3-(3,5-dibromo-4-hydroxybenzyliden)-5-iodo-1,3-duhydroindol-2-one]
growth inhibition (SUN-1 cells): about 70%
AUC0-t [1]: 6127.9 ng·h/mL
Cmax [1]: 4905.2 ng/mL
T1/2 [1]: 3.719 h
Tmax [1]: 0.5 h

O=C1Nc2ccc(I)cc2C1=Cc1cc(Br)c(O)c(Br)c1.OCCN(CCO)CCO [MG-A3, Triethanolamine Salt of GW5075]
growth inhibition (SUN-1 cells): about 70%
Cmax [2]: 6844.6 ng/mL
T1/2 [2]: 4.364 h
Tmax [2]: 0.5 h
AUC0-t [2]: 8258.7 ng·h/mL

CC(C)(N)CN.O=C1Nc2ccc(I)cc2C1=Cc1cc(Br)c(O)c(Br)c1 [MG-A2, 2-Amino-2-Methylpropylamine Salt of GW5075]
growth inhibition (SUN-1 cells): about 70%
Solubility [3]: 0.19 mg/100 mL
Cmax [2]: 6447.7 ng/mL
T1/2 [2]: 4.855 h
Tmax [2]: 0.5 h
AUC0-t [2]: 7936.2 ng·h/mL

C1COCCN1.O=C1Nc2ccc(I)cc2C1=Cc1cc(Br)c(O)c(Br)c1 [Morpholine Salt of GW5075]
Solubility [3]: 0.57 mg/100 mL

O=C1Nc2ccc(I)cc2C1=Cc1cc(Br)c([O-])c(Br)c1.[Na+] [MG-A1, Sodium Salts of GW5074]
growth inhibition (SUN-1 cells): about 70%
